From PubChem BioAssay (NCI)
Where “and” joins values, the source holds several entries; their conditions need not be identical. Equal values may be shown once.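 Cultured in 96-well plates, cells were exposed to test compound for 48 hours across five concentrations. At the GI50, growth is halved. The concentration for full growth arrest is given as TGI.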

Key:
Experiment in all cases: inhibition of tumour cell growth, NCI panel, 48 h
A549 NSCLC = tested on: A549 NSCLC
BT-549 breast = tested on: BT-549 breast
LOX IMVI melanoma = tested on: LOX IMVI melanoma
NCI-H226 lung = tested on: NCI-H226 lung
NCI-H23 lung = tested on: NCI-H23 lung
NCI-H522 lung = tested on: NCI-H522 lung
SF-539 CNS = tested on: SF-539 CNS
SK-MEL-5 melanoma = tested on: SK-MEL-5 melanoma
SK-OV-3 ovarian = tested on: SK-OV-3 ovarian
SNB-75 CNS = tested on: SNB-75 CNS

Row | SMILES | GI50 (A549 NSCLC) | TGI (A549 NSCLC) | GI50 (BT-549 breast) | TGI (BT-549 breast) | GI50 (LOX IMVI melanoma) | TGI (LOX IMVI melanoma) | GI50 (NCI-H226 lung) | TGI (NCI-H226 lung) | GI50 (NCI-H23 lung) | TGI (NCI-H23 lung) | GI50 (NCI-H522 lung) [µM] | TGI (NCI-H522 lung) | GI50 (SF-539 CNS) | TGI (SF-539 CNS) | GI50 (SK-MEL-5 melanoma) | TGI (SK-MEL-5 melanoma) | GI50 (SK-OV-3 ovarian) [µM] | TGI (SK-OV-3 ovarian) [µM] | GI50 (SNB-75 CNS) | TGI (SNB-75 CNS)
1 | O=[N+]([O-])c1ccc(Sc2ncnc3nc[nH]c23)c2nonc12 | 29.6 µM | > 100 µM | 10.3 µM | 27.4 µM | 1.04 µM | 16 µM | 11.7 µM | 30.5 µM | 10.3 µM | 23.6 µM | 1.39 | 2.71 µM | 4.53 µM | 21.5 µM | 10.2 µM | 22.3 µM | 3.75 | 16.2 | 1.83 µM | 14 µM
2 | N/N=C(\C(=O)Nc1ccc(Cl)cc1Cl)C(c1cnc2ccccc2n1)[N+](=O)[O-] (stereo not drawn) | – | > 100 µM | – | > 100 µM | – | > 100 µM | – | > 100 µM | – | > 100 µM | – | > 100 µM | – | > 100 µM | – | > 100 µM | – | > 100 | – | > 100 µM
3 | CN(C)c1ccc(N=C2C=CC(=[N+](C)C)C=C2)cc1 | 5.21 µM | > 100 µM | 4.15 µM | 58.4 µM | 3.86 µM | 22.1 µM | 17 µM | > 100 µM | 3.52 µM | 29.4 µM | 1.79 | 4.95 µM | 11.7 µM | 45.8 µM | 3.26 µM | 11.8 µM | 15.5 | 78.6 | 5.86 µM | 21.2 µM
4 | Clc1cccc(Cl)c1C1CSc2ccccc2N=C1c1ccccc1 (stereo not drawn) | 12.2 µM | 28.1 µM | 5.19 µM | 17.1 µM | 1.75 µM | 4.03 µM | 20.5 µM | 74.2 µM | 13.1 µM | 31.4 µM | 3.52 | 14.5 µM | 6.08 µM | 18.9 µM | 4.74 µM | 18.1 µM | 11.5 | 24.4 | 2.53 µM | 17.2 µM
5 | CCN(CC)CCOc1ccccc1/C=C/c1noc2ccccc12 | – | – | – | 29.9 µM | – | – | – | 30.5 µM | – | 26.9 µM | – | 22.2 µM | – | 31.8 µM | – | 16.5 µM | – | 34.3 | – | 22.2 µM
6 | COC1CCN(C(=O)c2cc(Cc3n[nH]c(=O)c4ccccc34)ccc2F)CC1 | 58.9 µM | > 100 µM | 28.8 µM | > 100 µM | 58.5 µM | > 100 µM | 89.2 µM | > 100 µM | 51.7 µM | > 100 µM | 33.5 | > 100 µM | > 100 µM | > 100 µM | 32 µM | > 100 µM | > 100 | > 100 | 9.12 µM | > 100 µM
7 | c1cc2[nH]ncc2cc1-c1nc2ccc3[nH]ncc3c2c2c1CCCC2 | 1.78 µM | > 31.4 µM | 1 µM | 3.78 µM | 0.811 µM | 4.54 µM | 1.73 µM | 7.79 µM | 1.83 µM | 7.44 µM | 0.424 | 3.16 µM | 1.53 µM | 5.4 µM | 1.67 µM | 3.92 µM | 0.781 | – | 0.998 µM | 4.36 µM
8 | CS(=O)(=O)Nc1ccc(-c2cc(-c3ccccc3)cc(C(N)=O)c2N)cc1 | 20.2 µM | > 25 µM | > 25 µM | > 25 µM | > 25 µM | > 25 µM | > 25 µM | > 25 µM | > 25 µM | > 25 µM | 15.3 | > 25 µM | > 25 µM | > 25 µM | 15.6 µM | > 25 µM | > 25 | > 25 | 8.89 µM | > 25 µM
9 | O=C(CN(/C=C/C(=O)C(F)(F)F)c1ccc(Cl)cc1)c1ccccc1 | 12 µM | > 100 µM | 20.5 µM | 41.4 µM | 5.26 µM | 22.3 µM | – | – | 8.75 µM | 27.2 µM | 6.52 | 26.3 µM | 13.1 µM | 27.8 µM | 12.1 µM | 27.7 µM | 51.2 | > 100 | 12.9 µM | 41.1 µM
10 | C=CC(=O)NCc1cccc(Nc2ncc(Br)c(NCCCNC(=O)C3CCC3)n2)c1 | 1.49 µM and 0.901 µM | 12.5 µM and 11.6 µM | 0.698 µM and 0.515 µM | 2.55 µM and 2.42 µM | 0.337 µM and 0.246 µM | 4.21 µM and 4.58 µM | 0.999 µM and 0.448 µM | 7.85 µM and 11.8 µM | 1.5 µM and 1.19 µM | 8.7 µM and 7.85 µM | – | 12.2 µM and 5.52 µM | 0.369 µM and 0.475 µM | 2.03 µM and 2.72 µM | 2.23 µM and 1.87 µM | 5.35 µM and 5.81 µM | 0.9 | 9.84 | 0.113 µM and 0.0839 µM | 0.637 µM and 1.02 µM
11 | O=[N+]([O-])c1ccccc1N/N=C\c1c[nH]c2ccccc12 | 20.2 µM | > 100 µM | > 21.5 µM | > 100 µM | 8.81 µM | > 47.6 µM | 12.6 µM | > 100 µM | 16.8 µM | > 100 µM | 11.6 | > 100 µM | 12.4 µM | 31.2 µM | 71.4 µM | > 100 µM | 22.4 | 98 | 4.2 µM | 29.8 µM
12 | CCCCCCCCN(CCCCCCCC)CCCCCCNc1cc(OC)cc2cccnc12 | 16.3 µM | 34.8 µM | 14.7 µM | 28 µM | 3.79 µM | 13.5 µM | 17 µM | 33.7 µM | 2.42 µM | 6.2 µM | 1.9 | 4.78 µM | 3.18 µM | 11.5 µM | 8.53 µM | 21.1 µM | 15.3 | 28.8 | 15.3 µM | 29 µM
13 | C=CC(C1=CC(=O)C(OC)=CC1=O)c1ccccc1 (stereo not drawn) | – | > 62 µM | – | 29.9 µM | – | 31.7 µM | – | 39.6 µM | – | 32.5 µM | – | 23.8 µM | – | 29.9 µM | – | 30 µM | – | 42.2 | – | 39.1 µM
14 | CC(=O)c1cc(C(=O)c2ccc3c(c2)Sc2ccccc2N3)c2c(C)cc(C)cn12 | 0.337 µM | > 55.6 µM | 0.368 µM | > 21.3 µM | 0.73 µM | > 100 µM | 0.73 µM | > 100 µM | 0.482 µM | > 100 µM | 0.16 | 1.08 µM | 0.185 µM | 0.535 µM | 0.402 µM | 2.13 µM | 0.342 | – | 0.171 µM | 1.5 µM
